{"source": "paper PMC5548886", "about": "(Cancer Medicine, 2017)", "assay_in_all_cases": "IHC of tumor biopsies, H-score change on-treatment vs pretreatment", "type_in_all_cases": "in vivo, human", "key": {"[1]": {"tested_on": "cytoplasmic p-MEK", "description": "(§1) Pharmacodynamic markers were examined using peripheral blood samples, tumor and nevi biopsies (when available) and tumor imaging. BRAF mutation status was determined by Sanger sequencing. Pharmacodynamic markers analyzed, in available tumor/nevus samples obtained before treatment or archival tissue and during treatment on cycle 1, day 8 or day 15, including cytoplasmic p‐MEK, p‐ERK, BIM, c‐KIT, p‐AKT473, pS6 and PTEN, and nuclear p‐ERK, Ki‐67, PARP, cyclin D1, MITF, p27, and p53. Biomarker expression was determined by calculating the percentage of change in the H‐score (14) between on‐treatment and fresh/archival pretreatment specimens. Blood levels of VEGFR‐2 and were assessed before and at multiple time points while on treatment using enzyme‐linked immunosorbent assay (ELISA). […] Changes in standard uptake value (SUV) were determined by a blinded, independent central imaging review panel. Complete metabolic response (CMR) was complete resolution of tumor FDG‐PET uptake so SUV is the same as background. Partial metabolic response (PMR) decrease in sum of the tumor SUV of ≥25% from the baseline scan. Progressive metabolic disease (PMD) was defined as an increase in tumor SUV of ≥25% from the baseline scan, or the appearance of new FDG‐PET uptake in metastatic lesions. Stable metabolic disease (SMD) was defined as a change in tumor SUV between the PMR and PMD criteria."}, "[2]": {"tested_on": "c-KIT", "description": "as §1"}, "[3]": {"tested_on": "BIM", "description": "as §1"}, "[4]": {"tested_on": "p53", "description": "as §1"}, "[5]": {"tested_on": "cyclin D1", "description": "as §1"}, "[6]": {"tested_on": "pS6", "description": "as §1"}, "[7]": {"tested_on": "p27", "conditions": "All patients, n 20", "description": "as §1"}}, "data": [{"compound": "Cn1c(Nc2ccc(C(F)(F)F)cc2)nc2cc(Oc3ccnc(-c4ncc(C(F)(F)F)[nH]4)c3)ccc21", "note": "[RAF265]", "values": [{"measurement": "cytoplasmic pMEK % change vs pretreatment, Mean (SD)", "setting": "[1]; All patients, n 23", "value": "-4.3 (32) %"}, {"measurement": "cytoplasmic pMEK % change vs pretreatment, Median", "setting": "[1]; All patients, n 23", "value": -9.1, "unit": "%"}, {"measurement": "cytoplasmic pMEK % change vs pretreatment, Mean (SD)", "setting": "[1]; DL 5, n 2", "value": 0, "unit": "%"}, {"measurement": "cytoplasmic pMEK % change vs pretreatment, Median", "setting": "[1]; DL 5, n 2", "value": 0, "unit": "%"}, {"measurement": "cytoplasmic pMEK % change vs pretreatment, Mean (SD)", "setting": "[1]; DL 6, n 6", "value": "-16.1 (17.3) %"}, {"measurement": "cytoplasmic pMEK % change vs pretreatment, Median", "setting": "[1]; DL 6, n 6", "value": -15.3, "unit": "%"}, {"measurement": "cytoplasmic pMEK % change vs pretreatment, Mean (SD)", "setting": "[1]; DLs 1 - 4, n 11", "value": "+0.8 (44.4) %"}, {"measurement": "cytoplasmic pMEK % change vs pretreatment, Median", "setting": "[1]; DLs 1 - 4, n 11", "value": -11.1, "unit": "%"}, {"measurement": "cytoplasmic pMEK % change vs pretreatment, Mean (SD)", "setting": "[1]; DLs 7 and 7.1, n 4", "value": "-2.6 (5.3) %"}, {"measurement": "cytoplasmic pMEK % change vs pretreatment, Median", "setting": "[1]; DLs 7 and 7.1, n 4", "value": 0, "unit": "%"}, {"measurement": "CKIT % change vs pretreatment, Median", "setting": "[2]; All patients, n 8", "value": 0, "unit": "%"}, {"measurement": "CKIT % change vs pretreatment, Mean (SD)", "setting": "[2]; DL 6, n 1", "value": 0, "unit": "%"}, {"measurement": "CKIT % change vs pretreatment, Median", "setting": "[2]; DL 6, n 1", "value": 0, "unit": "%"}, {"measurement": "CKIT % change vs pretreatment, Mean (SD)", "setting": "[2]; DLs 1 - 4, n 4", "value": "-60 (80) %"}, {"measurement": "CKIT % change vs pretreatment, Median", "setting": "[2]; DLs 1 - 4, n 4", "value": -100, "unit": "%"}, {"measurement": "CKIT % change vs pretreatment, Mean (SD)", "setting": "[2]; DLs 7 and 7.1, n 3", "value": 0, "unit": "%"}, {"measurement": "CKIT % change vs pretreatment, Median", "setting": "[2]; DLs 7 and 7.1, n 3", "value": 0, "unit": "%"}, {"measurement": "BIM % change vs pretreatment, Mean (SD)", "setting": "[3]; All patients, n 14", "value": "-17.00 (54.5) %"}, {"measurement": "BIM % change vs pretreatment, Median", "setting": "[3]; All patients, n 14", "value": 0, "unit": "%"}, {"measurement": "BIM % change vs pretreatment, Mean (SD)", "setting": "[3]; DL 5, n 1", "value": -100, "unit": "%"}, {"measurement": "BIM % change vs pretreatment, Median", "setting": "[3]; DL 5, n 1", "value": -100, "unit": "%"}, {"measurement": "BIM % change vs pretreatment, Mean (SD)", "setting": "[3]; DL 6, n 2", "value": "-7.1 (11.1) %"}, {"measurement": "BIM % change vs pretreatment, Median", "setting": "[3]; DL 6, n 2", "value": -7.1, "unit": "%"}, {"measurement": "BIM % change vs pretreatment, Mean (SD)", "setting": "[3]; DLs 1 - 4, n 8", "value": "-18 (65.1) %"}, {"measurement": "BIM % change vs pretreatment, Median", "setting": "[3]; DLs 1 - 4, n 8", "value": -14.3, "unit": "%"}, {"measurement": "BIM % change vs pretreatment, Mean (SD)", "setting": "[3]; DLs 7 and 7.1, n 3", "value": "+6.7 (5.8) %"}, {"measurement": "BIM % change vs pretreatment, Median", "setting": "[3]; DLs 7 and 7.1, n 3", "value": "+10%"}, {"measurement": "P53 % change vs pretreatment, Mean (SD)", "setting": "[4]; All patients, n 20", "value": "+42.14 (195.033) %"}, {"measurement": "P53 % change vs pretreatment, Mean (SD)", "setting": "[4]; DL 5, n 2", "value": "+82.33(190.5) %"}, {"measurement": "P53 % change vs pretreatment, Median", "setting": "[4]; DL 5, n 2", "value": "+82.4%"}, {"measurement": "P53 % change vs pretreatment, Mean (SD)", "setting": "[4]; DL 6, n 4", "value": "+49.32 (123.273) %"}, {"measurement": "P53 % change vs pretreatment, Median", "setting": "[4]; DL 6, n 4", "value": -3.8, "unit": "%"}, {"measurement": "P53 % change vs pretreatment, Mean (SD)", "setting": "[4]; DLs 1 - 4, n 10", "value": "-27.30 (49.484) %"}, {"measurement": "P53 % change vs pretreatment, Median", "setting": "[4]; DLs 1 - 4, n 10", "value": -29.2, "unit": "%"}, {"measurement": "P53 % change vs pretreatment, Mean (SD)", "setting": "[4]; DLs 7 and 7.1, n 4", "value": "+188.5 (400.62) %"}, {"measurement": "P53 % change vs pretreatment, Median", "setting": "[4]; DLs 7 and 7.1, n 4", "value": 0, "unit": "%"}, {"measurement": "Cyclin D1 % change vs pretreatment, Mean (SD)", "setting": "[5]; All patients, n 23", "value": "+0.19 (93.7) %"}, {"measurement": "Cyclin D1 % change vs pretreatment, Median", "setting": "[5]; All patients, n 23", "value": -25, "unit": "%"}, {"measurement": "Cyclin D1 % change vs pretreatment, Mean (SD)", "setting": "[5]; DL 5, n 3", "value": "+56.8 (125.6) %"}, {"measurement": "Cyclin D1 % change vs pretreatment, Median", "setting": "[5]; DL 5, n 3", "value": "+5.00%"}, {"measurement": "Cyclin D1 % change vs pretreatment, Mean (SD)", "setting": "[5]; DL 6, n 5", "value": "-49.12 (30.7) %"}, {"measurement": "Cyclin D1 % change vs pretreatment, Median", "setting": "[5]; DL 6, n 5", "value": -48.9, "unit": "%"}, {"measurement": "Cyclin D1 % change vs pretreatment, Mean (SD)", "setting": "[5]; DLs 1 - 4, n 10", "value": "-4.5 (95) %"}, {"measurement": "Cyclin D1 % change vs pretreatment, Median", "setting": "[5]; DLs 1 - 4, n 10", "value": -24, "unit": "%"}, {"measurement": "Cyclin D1 % change vs pretreatment, Mean (SD)", "setting": "[5]; DLs 7 and 7.1, n 5", "value": "+25 (113.6) %"}, {"measurement": "Cyclin D1 % change vs pretreatment, Median", "setting": "[5]; DLs 7 and 7.1, n 5", "value": 0, "unit": "%"}, {"measurement": "cyclin D1, median decrease", "setting": "[5]; in vivo", "value": 25, "unit": "%"}, {"measurement": "PS6 % change vs pretreatment, Mean (SD)", "setting": "[6]; All patients, n 19", "value": "+6.9 (70.8) %"}, {"measurement": "PS6 % change vs pretreatment, Median", "setting": "[6]; All patients, n 19", "value": -13, "unit": "%"}, {"measurement": "PS6 % change vs pretreatment, Mean (SD)", "setting": "[6]; DL 5, n 1", "value": "+255.6%"}, {"measurement": "PS6 % change vs pretreatment, Median", "setting": "[6]; DL 5, n 1", "value": "+255.6%"}, {"measurement": "pS6, median decrease", "setting": "[6]; DL 6", "value": 35.8, "unit": "%"}, {"measurement": "PS6 % change vs pretreatment, Mean (SD)", "setting": "[6]; DL 6, n 6", "value": "-20.6 (29.1) %"}, {"measurement": "PS6 % change vs pretreatment, Median", "setting": "[6]; DL 6, n 6", "value": -35.8, "unit": "%"}, {"measurement": "PS6 % change vs pretreatment, Mean (SD)", "setting": "[6]; DLs 1 - 4, n 8", "value": "-16.8 (20.9) %"}, {"measurement": "PS6 % change vs pretreatment, Median", "setting": "[6]; DLs 1 - 4, n 8", "value": -18.9, "unit": "%"}, {"measurement": "PS6 % change vs pretreatment, Mean (SD)", "setting": "[6]; DLs 7 and 7.1, n 4", "value": "33.4 (55.7) %"}, {"measurement": "PS6 % change vs pretreatment, Median", "setting": "[6]; DLs 7 and 7.1, n 4", "value": "+16.3%"}, {"measurement": "P27 % change vs pretreatment, Mean (SD)", "setting": "[7]", "value": "+86 (251.9) %"}, {"measurement": "P27 % change vs pretreatment, Median", "setting": "[7]", "value": "+5%"}]}]}
